Results published in patent US20260070945A1, “MACROCYCLIC IMMUNOMODULATORS” (Bristol-Myers Squibb Company, priority 2022, published 2026).
Where a SMILES comes first, the peptide text is derived from it. Bridges are numbered along the chain shown (N, C = ends). [ ]: non-standard residue; d: D form. The star is where a group is joined. Bip = N[C@@H](Cc1ccc(-c2ccccc2)cc1)C(=O)O; Phe(3-Me) = Cc1cccc(C[C@H](N)C(=O)O)c1; 3Pal = N[C@@H](Cc1cccnc1)C(=O)O; 4Pal = N[C@@H](Cc1ccncc1)C(=O)O; Cha = N[C@@H](CC1CCCCC1)C(=O)O; Carboxymethyl = O=C(O)C*; NMeA = CN[C@@H](C)C(=O)O; Orn = NCCC[C@H](N)C(=O)O; Aun = NCCCCCCCCCCC(=O)O; Dab = NCC[C@H](N)C(=O)O; Dap = NC[C@H](N)C(=O)O; AEEA = NCCOCCOCC(=O)O

Target: T1, PD-1/PD-L1 interaction (PE-labeled human PD-L1-Ig binding to Jurkat cell line over-expressing human PD-1) (Homo sapiens, UniProt Q15116)
T1 construct: expressed in transfected cells; host or cells: Jurkat
T1 sequence (Q15116 25-288): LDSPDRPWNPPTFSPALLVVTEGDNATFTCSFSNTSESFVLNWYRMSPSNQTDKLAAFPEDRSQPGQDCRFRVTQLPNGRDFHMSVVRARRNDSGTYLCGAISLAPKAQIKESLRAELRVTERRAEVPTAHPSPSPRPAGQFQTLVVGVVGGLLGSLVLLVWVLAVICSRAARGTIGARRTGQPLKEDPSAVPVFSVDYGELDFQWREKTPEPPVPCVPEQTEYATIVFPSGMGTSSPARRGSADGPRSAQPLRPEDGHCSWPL
Assay: Jurkat-PD-1 Cell Binding High-Content Screening Assay (CBA)
Details: Jurkat-hPD-1 cells, PE-labeled PD-L1-Ig 20 nM final; read-out: Jurkat HPD1 PDL1 IC50
Procedure, shortened: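 Read-out: high-content imaging of cell-bound PE fluorescence, with Hoechst 33342 nuclear counterstain after paraformaldehyde fixation. Before labeled ligand (20 nM final, 1 h) was added, compound sat on the cells for 2 h at 37 °C in DMEM/10% FCS.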

Compared with `Cc1cccc(C[C@@H]2NC(=O)[C@H](CC(=O)O)NC(=O)[C@H](Cc3ccc(OCC(=O)O)cc3)NC(=O)[C@H](CN)NC(=O)CSC[C@@H](C(=O)NCCOCCOCC(=O)NCCCCCCCCCCC(=O)O)NC(=O)[C@H](CCCN)NC(=O)[C@H](C(C)C)NC(=O)[C@H](CC3CCCCC3)NC(=O)[C@H](CCN)NC(=O)[C@@H](CC(C)C)NC(=O)[C@H](C)N(C)C(=O)[C@H](Cc3ccc(O)cc3)NC(=O)[C@H](Cc3ccc(-c4ccccc4)cc3)NC(=O)[C@H](Cc3ccc(O)cc3)NC2=O)c1` [Example 1316] ({CH2CO}-[Dap]Y(Carboxymethyl)D[Phe(3-Me)]Y[Bip]Y[NMeA][dL][Dab][Cha]V[Orn]C[AEEA][Aun]-OH; thioether N-14), `Cc1cccc(C[C@@H]2NC(=O)[C@H](CC(=O)O)NC(=O)[C@H](Cc3ccc(OCC(=O)O)cc3)NC(=O)[C@H](CN)NC(=O)CSC[C@@H](C(=O)NCCCCCCCCCCC(=O)O)NC(=O)[C@H](CCCN)NC(=O)[C@H](C(C)C)NC(=O)[C@H](CC3CCCCC3)NC(=O)[C@H](CCN)NC(=O)[C@@H](CC(C)C)NC(=O)[C@H](C)N(C)C(=O)[C@H](Cc3ccc(O)cc3)NC(=O)[C@H](Cc3ccc(-c4ccccc4)cc3)NC(=O)[C@H](Cc3ccc(O)cc3)NC2=O)c1` [Example 1318] ({CH2CO}-[Dap]Y(Carboxymethyl)D[Phe(3-Me)]Y[Bip]Y[NMeA][dL][Dab][Cha]V[Orn]C[Aun]-OH; thioether N-14) is 1.6-fold lower in IC50: 97.7 nM for the first, 59.8 nM for the second. The second is the more potent here.

`Cc1cccc(C[C@@H]2NC(=O)[C@H](CC(=O)O)NC(=O)[C@H](Cc3ccc(OCC(=O)O)cc3)NC(=O)[C@H](CN)NC(=O)CSC[C@@H](C(=O)NCCOCCOCC(=O)NCCCCCCCCCCC(=O)O)NC(=O)[C@H](CCCN)NC(=O)[C@H](C(C)C)NC(=O)[C@H](CC3CCCCC3)NC(=O)[C@H](CCN)NC(=O)[C@@H](CC(C)C)NC(=O)[C@H](C)N(C)C(=O)[C@H](Cc3ccc(O)cc3)NC(=O)[C@H](Cc3ccc(-c4ccccc4)cc3)NC(=O)[C@H](C(C)C)NC2=O)c1` [Example 1317] ({CH2CO}-[Dap]Y(Carboxymethyl)D[Phe(3-Me)]V[Bip]Y[NMeA][dL][Dab][Cha]V[Orn]C[AEEA][Aun]-OH; thioether N-14) and `Cc1cccc(C[C@@H]2NC(=O)[C@H](CC(=O)O)NC(=O)[C@H](Cc3ccc(OCC(=O)O)cc3)NC(=O)[C@H](CN)NC(=O)CSC[C@@H](C(=O)NCCCCCCCCCCC(=O)O)NC(=O)[C@H](CCCN)NC(=O)[C@H](C(C)C)NC(=O)[C@H](CC3CCCCC3)NC(=O)[C@H](CCN)NC(=O)[C@@H](CC(C)C)NC(=O)[C@H](C)N(C)C(=O)[C@H](Cc3ccc(O)cc3)NC(=O)[C@H](Cc3ccc(-c4ccccc4)cc3)NC(=O)[C@H](C(C)C)NC2=O)c1` [Example 1319] ({CH2CO}-[Dap]Y(Carboxymethyl)D[Phe(3-Me)]V[Bip]Y[NMeA][dL][Dab][Cha]V[Orn]C[Aun]-OH; thioether N-14) are within 1.5-fold of each other in IC50: 36.5 nM for the first, 42 nM for the second.

`Cc1cccc(C[C@@H]2NC(=O)[C@H](CC(=O)O)NC(=O)[C@H](Cc3ccc(OCC(=O)O)cc3)NC(=O)[C@H](CN)NC(=O)CSC[C@@H](C(=O)N[C@@H](CCN)C(=O)NCCCCCCCCCCC(=O)O)NC(=O)[C@H]([C@@H](C)O)NC(=O)[C@H](C(C)C)NC(=O)[C@H](CC3CCCCC3)NC(=O)[C@H](CCN)NC(=O)[C@@H](CC(C)C)NC(=O)[C@H](C)N(C)C(=O)[C@H](Cc3ccc(O)cc3)NC(=O)[C@H](Cc3ccc(-c4ccccc4)cc3)NC(=O)[C@H](C(C)C)NC2=O)c1` [Example 1320] ({CH2CO}-[Dap]Y(Carboxymethyl)D[Phe(3-Me)]V[Bip]Y[NMeA][dL][Dab][Cha]VTC[Dab][Aun]-OH; thioether N-14) and `Cc1cccc(C[C@@H]2NC(=O)[C@H](CC(=O)O)NC(=O)[C@H](Cc3ccc(OCC(=O)O)cc3)NC(=O)[C@H](CC(N)=O)NC(=O)CSC[C@@H](C(=O)N[C@@H](CCN)C(=O)NCCCCCCCCCCC(=O)O)NC(=O)[C@H]([C@@H](C)O)NC(=O)[C@H](C(C)C)NC(=O)[C@H](CC3CCCCC3)NC(=O)[C@H](CCN)NC(=O)[C@@H](CC(C)C)NC(=O)[C@H](C)N(C)C(=O)[C@H](Cc3ccc(O)cc3)NC(=O)[C@H](Cc3ccc(-c4ccccc4)cc3)NC(=O)[C@H](C(C)C)NC2=O)c1` [Example 1322] ({CH2CO}-NY(Carboxymethyl)D[Phe(3-Me)]V[Bip]Y[NMeA][dL][Dab][Cha]VTC[Dab][Aun]-OH; thioether N-14) are within 1.5-fold of each other in IC50: 15 nM for the first, 19.7 nM for the second.

`Cc1cccc(C[C@@H]2NC(=O)[C@H](CC(=O)O)NC(=O)[C@H](Cc3ccc(O)cc3)NC(=O)[C@H](CC(N)=O)NC(=O)CSC[C@@H](C(=O)N[C@@H](CCN)C(=O)NCCCCCCCCCCC(=O)O)NC(=O)[C@H]([C@@H](C)O)NC(=O)[C@H](C(C)C)NC(=O)[C@H](CC3CCCCC3)NC(=O)[C@H](CCN)NC(=O)[C@@H](CC(C)C)NC(=O)[C@H](C)N(C)C(=O)[C@H](Cc3ccc(O)cc3)NC(=O)[C@H](Cc3ccc(-c4ccccc4)cc3)NC(=O)[C@H](C(C)C)NC2=O)c1` [Example 1321] ({CH2CO}-NYD[Phe(3-Me)]V[Bip]Y[NMeA][dL][Dab][Cha]VTC[Dab][Aun]-OH; thioether N-14) and `Cc1cccc(C[C@@H]2NC(=O)[C@H](CC(=O)O)NC(=O)[C@H](Cc3cccnc3)NC(=O)[C@H](CC(N)=O)NC(=O)CSC[C@@H](C(=O)N[C@@H](CCN)C(=O)NCCCCCCCCCCC(=O)O)NC(=O)[C@H]([C@@H](C)O)NC(=O)[C@H](C(C)C)NC(=O)[C@H](CC3CCCCC3)NC(=O)[C@H](CCN)NC(=O)[C@@H](CC(C)C)NC(=O)[C@H](C)N(C)C(=O)[C@H](Cc3ccc(O)cc3)NC(=O)[C@H](Cc3ccc(-c4ccccc4)cc3)NC(=O)[C@H](C(C)C)NC2=O)c1` [Example 1323] ({CH2CO}-N[3Pal]D[Phe(3-Me)]V[Bip]Y[NMeA][dL][Dab][Cha]VTC[Dab][Aun]-OH; thioether N-14) are within 1.5-fold of each other in IC50: 142 nM for the first, 99.4 nM for the second.

`CC(C)C[C@H]1NC(=O)[C@H](C)N(C)C(=O)[C@H](Cc2ccc(O)cc2)NC(=O)[C@H](Cc2ccc(-c3ccccc3)cc2)NC(=O)[C@H](C(C)C)NC(=O)[C@H](Cc2c[nH]c3ccccc23)NC(=O)[C@H](CC(=O)O)NC(=O)[C@H](Cc2ccc(OCC(=O)O)cc2)NC(=O)[C@H](Cc2ccncc2)NC(=O)CSC[C@@H](C(=O)N[C@@H](CCN)C(=O)NCCCCCCCCCCC(=O)O)NC(=O)[C@H]([C@@H](C)O)NC(=O)[C@H](C(C)C)NC(=O)[C@H](CC2CCCCC2)NC(=O)[C@H](CCN)NC1=O` [Example 1324] ({CH2CO}-[4Pal]Y(Carboxymethyl)DWV[Bip]Y[NMeA][dL][Dab][Cha]VTC[Dab][Aun]-OH; thioether N-14) and `CC(C)C[C@@H]1NC(=O)[C@H](Cc2c[nH]c3ccccc23)NC(=O)[C@H](CC(=O)O)NC(=O)[C@H](Cc2ccncc2)NC(=O)[C@H](Cc2ccc(OCC(=O)O)cc2)NC(=O)CSC[C@@H](C(=O)N[C@@H](CCN)C(=O)NCCCCCCCCCCC(=O)O)NC(=O)[C@H]([C@@H](C)O)NC(=O)[C@H](C(C)C)NC(=O)[C@H](CC2CCCCC2)NC(=O)[C@H](CCN)NC(=O)[C@@H](CC(C)C)NC(=O)[C@H](C)N(C)C(=O)[C@H](Cc2ccc(O)cc2)NC(=O)[C@H](Cc2ccc(-c3ccccc3)cc2)NC1=O` [Example 1325] ({CH2CO}-Y(Carboxymethyl)[4Pal]DWL[Bip]Y[NMeA][dL][Dab][Cha]VTC[Dab][Aun]-OH; thioether N-14) are within 1.5-fold of each other in IC50: 34.2 nM for the first, 28.1 nM for the second.
